Laboratory results reported in patent US8637677B2, “Organic dicarboxylic acids, salts and preparation method thereof” (Southeast University, priority 2009, dated 2014).

Assays:
[1] = tested on: in vitro eye lens of rats; experiment: resisting oxidative damage to in vitro eye lens of rats induced by H2O2 (lens opacification grading); type: cell-based; details: rat lens; for Comments (improvement versus model group) / Observation Results + (number of lenses with mild opacity, degree I) / Observation Results ++ (number of lenses with moderate opacity, degree II) / Observation Results +++ (number of lenses totally opacified, degree III) / Percentages % + Degree (I) / Percentages % >++ Degrees (II, III): 5% H2O2 + 0.02% FeCl3, 24 h culture, sample and BDL 0.5 mmol/L; for Observation Results + (number of lenses with mild opacity, degree I) / Observation Results ++ (number of lenses with moderate opacity, degree II) / Observation Results +++ (number of lenses totally opacified, degree III) / Percentages % + Degree (I) / Percentages % >++ Degrees (II, III): vitamin C 1 mmol/L; for inhibitory effects on oxidative damage to in vitro eye lens of rats induced by H2O2: sample 0.5 mmol/L, summary of table 2
Text: (§1) Some typical compounds are selected for the research on the capability of in vitro resisting oxidative damage to crystalline lens induced by H2O2. The experiments are illustrated as follows:
(§2) Kill rats and rabbits, take out their eyeballs and rinse with saline containing 500 u/mL penicillin, split the eyeball from the posterior to remove eyeball wall and vitreous body, strip off the suspensory ligament, take out the crystalline lens and wash with PBS solution containing 500 u/mL penicillin and 0.5 mg/mL streptomycin for 5 min Before experiment, check with anatomical lens to confirm that there is no opacification or other abnormal condition in the crystalline lens, then place the crystalline lens in the sterilized 12-well plate containing 2 mL DMEM/high glucose (a product from Beijing Thermo Fisher Scientific Biochemical Product Co., Ltd.) sterile culture solution (which contains 100 u/mL penicillin and 0.1 mg/mL streptomycin), add different compounds for screening and pre-culture in a incubator with temperature of 37° C., humidity of 95% and 5% CO2 for 1 h, subsequently add 2 mL DEME culture solution containing H2O2 and FeCl3 (namely, total 4 mL culture solution in each well) (the total concentration of H2O2 in each well is 2% for rabbits, and 5% for rats, and the concentrations of FeCl3 are all 0.02%), culture under the same conditions for 24 hours. The experiments are divided into several groups as below and carried out in batches, with each batch provided with negative control group and model group.
(§3) A. Negative control group: DMEM culture solution without H2O2.
(§4) B. Model group (oxidative damage group): DMEM culture solution containing H2O2 and FeCl3.
(§5) C. Vitamin C group: besides the ingredients of the model group, further containing vitamin C (the final concentration is 1 mmol/L).
(§6) D. Bendazac lysine (BDL) group (BDL is provided by Zhejiang Shapuaisi Pharmaceutical Co. Ltd., and its purity is more than 98.5%): besides the ingredients of model group, further containing BDL (the final concentration is 0.5 mmol/L).
(§7) E. Sample group: besides the ingredients of model group, further containing sample (the final concentration is 0.5 mmol/L).
(§8) Evaluation criteria: according to large amount of experiments on the model group, the ratio between the percentage of different degrees of lens turbidity in the groups and the percentage of different degrees of lens turbidity in the model group is utilized as the definition, wherein, for slight improvement (√), the percentage of ++ (degrees II, III) should be lower than 72%, and the percentage of + (degree I) should be higher than 20%; for moderate improvement (√√) the percentage of ++(degrees II, III) further decreases; and the percentage of 0 (−) appears; for significant improvement (√√√), the percentage of ++ (degrees II, III) and +(degree I) disappears, and the lens are almost transparent.

[2] = tested on: in vitro eye lens of rabbits; experiment: resisting oxidative damage to in vitro eye lens of rabbits induced by H2O2 (lens opacification grading); type: cell-based; details: rabbit lens; for Comments (improvement versus model group) / Observation Results + (number of lenses with mild opacity, degree I) / Observation Results ++ (number of lenses with moderate opacity, degree II) / Percentages for different degrees % + Degree (I) / Percentages for different degrees % >++ Degrees(I, II) / Observation Results +++ (number of lenses totally opacified, degree III): 2% H2O2 + 0.02% FeCl3, 24 h culture, sample and BDL 0.5 mmol/L; for Observation Results + (number of lenses with mild opacity, degree I) / Observation Results ++ (number of lenses with moderate opacity, degree II) / Percentages for different degrees % + Degree (I) / Percentages for different degrees % >++ Degrees(I, II) / Observation Results +++ (number of lenses totally opacified, degree III): vitamin C 1 mmol/L; for inhibitory effects on oxidative damage to in vitro eye lens of rabbits induced by H2O2: sample 0.5 mmol/L, table 1
Text: as §1, §2, §3, §4, §5, §6, §7
as §8, with “lens opacification” for “lens turbidity”, “than 67%,” for “than 72%,”, “than 33%;” for “than 20%;”, “improvement (√√),” for “improvement (√√)”, “and + (degree” for “and +(degree”

SMILES	Comments (improvement versus model group) [1]	Observation Results + (number of lenses with mild opacity, degree I) [1]	Observation Results ++ (number of lenses with moderate opacity, degree II) [1]	Observation Results +++ (number of lenses totally opacified, degree III) [1]	Percentages % + Degree (I) [1] [%]	Percentages % >++ Degrees (II, III) [1] [%]	Comments (improvement versus model group) [2]	Observation Results + (number of lenses with mild opacity, degree I) [2]	Observation Results ++ (number of lenses with moderate opacity, degree II) [2]	Percentages for different degrees % + Degree (I) [2] [%]	Percentages for different degrees % >++ Degrees(I, II) [2] [%]	Observation Results +++ (number of lenses totally opacified, degree III) [2]	inhibitory effects on oxidative damage to in vitro eye lens of rats induced by H2O2 [1]	inhibitory effects on oxidative damage to in vitro eye lens of rabbits induced by H2O2 [2]
O=C(O)COc1nn(Cc2ccccc2)c2ccccc12 [BDL, Bendazac lysine, reference compound]	✓	30	22	3	54	46	✓	9	3	75	25	–	–	–
O=C1O[C@H]([C@@H](O)CO)C(O)=C1O [VC, vitamin C, reference compound]	–	7	8	3	39	61	–	13	16	42	58	2	–	–
O=C([O-])C(Oc1nn(Cc2ccccc2)c2ccccc12)C(=O)[O-].[Na+].[Na+] [Y1, 2-(1-benzyl-1H-indazole-3-oxyl) malonate disodium]	✓	4	1	–	80	20	–	4	3	57	43	–	showing inhibitory effects	not significant
O=C([O-])C(Oc1nn(Cc2ccccc2)c2ccccc12)C(=O)[O-].[K+].[K+] [Y2, 2-(1-benzyl-1H-indazole-3-oxyl) malonate dipotassium]	–	–	3	3	–	100	–	2	3	29	71	2	not significant	not significant
N[C@@H](Cc1c[nH]cn1)C(=O)O.N[C@@H](Cc1c[nH]cn1)C(=O)O.O=C(O)C(Oc1nn(Cc2ccccc2)c2ccccc12)C(=O)O [Y4, 2-(1-benzyl-1H-indazole-3-oxyl) malonate dihistidine]	✓	18	3	–	86	14	✓	14	7	67	33	–	showing inhibitory effects	showing inhibitory effects
NCCCC[C@H](N)C(=O)O.NCCCC[C@H](N)C(=O)O.O=C(O)C(Oc1nn(Cc2ccccc2)c2ccccc12)C(=O)O [Y5, 2-(1-benzyl-1H-indazole-3-oxyl) malonate dilysine]	–	1	4	1	17	83	–	2	2	33	67	2	showing inhibitory effects	not significant
O=C([O-])C(Oc1nn(Cc2cccc(F)c2)c2ccccc12)C(=O)[O-].[Na+].[Na+] [Y10, 2-[1-(3-fluoro-benzyl)-1H-indazole-3-oxyl) malonate disodium]	✓	47	28	3	60	40	✓	4	1	80	20	–	not significant	showing inhibitory effects
NCCCC[C@H](N)C(=O)O.NCCCC[C@H](N)C(=O)O.O=C(O)C(Oc1nn(Cc2cccc(F)c2)c2ccccc12)C(=O)O [Y14, 2-[1-(3-fluoro-benzyl)-1H-indazole-3-oxyl) malonate dilysine]	✓	10	8	–	56	44	–	–	–	–	–	–	showing inhibitory effects	–
NCCCC[C@H](N)C(=O)O.NCCCC[C@H](N)C(=O)O.O=C(O)C(Oc1nn(Cc2cccc(Cl)c2)c2ccccc12)C(=O)O [Y19, 2-[1-(3-chloro-benzyl)-1H-indazole-3-oxyl]malonate dilysine]	✓	18	10	4	56	44	–	–	–	–	100	3	showing inhibitory effects	not significant
